IC50 and inhibition data for 20 compounds are collected here from ChEMBL document CHEMBL3621163, “Phenothiazine-based CaaX competitive inhibitors of human farnesyltransferase bearing a cysteine, methionine, serine or valine moiety as a new family of antitumoral compounds” (Bioorg Med Chem Lett, 2015).

The structures appear in SMILES notation.

Holding throughout (format): protein-complex assay
The target of assay [1] is T1, Protein farnesyltransferase (Homo sapiens, UniProt P49354+P49356). As to the kind of experiment: Inhibition of recombinant human FTase using FPP/dansyl-GCVLS as substrate measured for 15 mins by fluorimetric analysis.
In assay [2] the target is T1, Protein farnesyltransferase. The experiment in a line: Inhibition of recombinant human FTase using FPP/dansyl-GCVLS as substrate at 100 uM measured for 15 mins by fluorimetric analysis relative to control.
The target is the same in assay [3]. As to the kind of experiment: Inhibition of human FTase.

With `O=C(CCn1c2ccccc2c2ccccc21)N[C@@H](CS)C(=O)O`, the IC50 in assay [1] is 65.4 µM. Moreover, in assay [2], the inhibition was 67%. As to `CSCC[C@H](NC(=O)CCN1c2ccccc2Sc2ccc(Cl)cc21)C(=O)O`, the half-inhibitory concentration (IC50) in assay [1] came out at 18.9 µM. Further, in assay [2], the inhibition was 96%. Regarding `O=C(CCN1c2ccccc2Sc2ccccc21)N[C@@H](CS)C(=O)O`, the IC50 in assay [1] came to 4.7 µM. The inhibition in assay [2] amounted to 92%. Taken in the same sequence, the figures for `O=C(CCN1c2ccccc2Sc2ccccc21)N[C@@H](CO)C(=O)O` were 12 µM and 94%.

As for `O=C(CCn1c2ccccc2c2ccccc21)OCCS`, in assay [3], the IC50 came to 35 µM. Regarding `COC(=O)[C@@H](NC(=O)CCN1c2ccccc2Sc2ccccc21)C(C)C`, the inhibition in assay [2] amounted to 52%. As to `CCOC(=O)[C@H](CS)NC(=O)CCn1c2ccccc2c2ccccc21`, the inhibition in assay [2] was 15%.

As to `COC(=O)[C@@H](NC(=O)CCn1c2ccccc2c2ccccc21)C(C)C`, in assay [2], the inhibition came to 12%. The same measure, in the same setting: next, `O=C(CCn1c2ccccc2c2ccccc21)N[C@@H](CO)C(=O)O`: 33%; `COC(=O)[C@H](CO)NC(=O)CCN1c2ccccc2Sc2ccccc21`: 63%; `CCOC(=O)[C@H](CSSC[C@H](NC(=O)CCN1c2ccccc2Sc2ccccc21)C(=O)OCC)NC(=O)CCN1c2ccccc2Sc2ccccc21`: 0%. Same read-out and setting: next, `COC(=O)[C@H](CCSC)NC(=O)CCN1c2ccccc2Sc2ccccc21`: 5%; `CCOC(=O)[C@H](CS)NC(=O)CCN1c2ccccc2Sc2ccccc21`: 10%. On the same count and under the same terms, next, `COC(=O)[C@H](CCSC)NC(=O)CCn1c2ccccc2c2ccccc21`: 51%.

For `CC(C)[C@H](NC(=O)CCN1c2ccccc2Sc2ccccc21)C(=O)O`, in assay [1], the concentration for half-maximal inhibition (IC50) was 44.7 µM. In addition, the inhibition in assay [2] worked out at 76%.

Regarding `CC(C)[C@H](NC(=O)CCn1c2ccccc2c2ccccc21)C(=O)O`, the inhibition in assay [2] is 22%. With `CSCC[C@H](NC(=O)CCn1c2ccccc2c2ccccc21)C(=O)O`, the IC50 in assay [1] was 40.2 µM. In assay [2], the inhibition was determined as 73%. For `CSCC[C@H](NC(=O)CCN1c2ccccc2Sc2ccccc21)C(=O)O` the same measures were 11.7 µM and 92%. Consider `COC(=O)[C@H](CCSC)NC(=O)CCN1c2ccccc2Sc2ccc(Cl)cc21`, for which, in assay [2], the inhibition turned out to be 0%. Same read-out and setting: next, `COC(=O)[C@H](CO)NC(=O)CCn1c2ccccc2c2ccccc21`: 23%.
